What was measured:
[1] = Inhibitory concentration required to displace [3H]insP3 from Inositol 1,4,5-trisphosphate receptor of bovine adrenal cortex membranes; type: tissue-based
[2] = Effective concentration required for Calcium release via the intracellular InsP3 receptor of SH-SY5Y cells; type: functional, cell-based; details: Homo sapiens

Compound	IC50 [1] [nM]	EC50 [2] [nM]
O=P(O)(O)OC1C(O)C(O)C(OP(=O)(O)O)C(OP(=O)(O)O)C1F (stereo unspecified)	269	5420
O=P(O)(O)OC1C(O)C(OP(=O)(O)O)C(OP(=O)(O)O)C(F)C1OP(=O)(O)O (stereo unspecified)	9.7	100
O=P(O)(O)O[C@@H]1[C@H](O)[C@H](O)[C@@H](OP(=O)(O)O)[C@H](OP(=O)(O)O)[C@H]1O [INS(1,4,5)P3]	5.5	51.6
